Laboratory results: patent US20250276955A1, “CORONAVIRUS MAIN PROTEASE INHIBITORS AND METHODS USING SAME” (Baylor College of Medicine, priority 2021, published 2025)

Tests used:
[1] = molecular target: T1, renin (Homo sapiens, UniProt P00797); assay: Renin assay; type: biochemical; conditions: read-out: estimated Kiapp, renin
T1 construct: purchased BPS Bioscience 80211
T1 sequence (P00797 67-406): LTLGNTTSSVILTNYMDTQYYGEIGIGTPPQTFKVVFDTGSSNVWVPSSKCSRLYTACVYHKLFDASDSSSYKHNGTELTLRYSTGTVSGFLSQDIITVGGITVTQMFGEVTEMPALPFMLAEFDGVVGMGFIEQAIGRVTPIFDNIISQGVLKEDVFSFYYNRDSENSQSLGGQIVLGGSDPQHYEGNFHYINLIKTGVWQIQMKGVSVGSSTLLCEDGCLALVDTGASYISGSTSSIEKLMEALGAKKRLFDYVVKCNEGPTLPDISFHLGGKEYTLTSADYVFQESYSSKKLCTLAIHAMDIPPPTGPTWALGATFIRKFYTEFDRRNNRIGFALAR
Protocol: A kit from BPS Bioscience (#80211) was used with adjustments to the manufacturer's protocol as follows: The reaction was run at RT in black 96 half-area plates in a total reaction volume of 50 uL containing 0.01% Tween-20. Instead of measuring endpoints at 30 min the increase in fluorescence (Ex 490 nm, Em 520 nm) per second (RFU/s) was obtained from linear progress curves over 10 min. Fractional activities were calculated from reactions with no inhibitors. Aliskiren was used as a positive control.

[2] = Metabolic stability in mouse liver microsomes; type: in vitro ADME
Method in brief: (§1)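 Mouse or human liver microsomal incubations sampled in duplicate at 0, 30 and 60 min, quenched with equal volume ice-cold methanol. Supernatant analysed by UHPLC-Orbitrap MS, C18 column at 40° C, positive ESI, m/z 80–1,200.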

[3] = Metabolic stability in human liver microsomes; type: in vitro ADME
Method in brief: as §1

Structure (SMILES): COc1cc(-c2cccc3[nH]ncc23)cc(C=O)c1OCC(=O)N(C)C [CDD-1713, 2-(2-formyl-4-(1H-indazol-4-yl)-6-methoxyphenoxy)-N,N-dimethylacetamide]
- Ki [1]: 53 µM
- MLM t1/2 ([2]; Table 4): 8.4 min
- microsomal CLint at 2 μM ([2]; mouse, liver microsomes): 147 µL/min/mg
- metabolic stability in mouse liver microsomes (in words) ([2]; mouse, microsomes): metabolically labile
- HLM t1/2 ([3]; Table 4): 15.3 min
- microsomal CLint at 2 μM ([3]; human, liver microsomes): 90.6 µL/min/mg
- metabolic stability in human liver microsomes (in words) ([3]; human, microsomes): metabolically labile
